Some test systems named below: HT29 colon; A498 renal; UO-31 renal; UACC-257 melanoma; K-562 leukemia; OVCAR-4 ovarian; EKVX NSCLC; SR leukemia; IGROV1 ovarian; SK-MEL-28 melanoma; SF-295 CNS; KM12 colon; A549 NSCLC; NCI-H460 lung; SK-MEL-5 melanoma; COLO 205 colon; LOX IMVI melanoma; HS 578T breast; M14 melanoma.
What all share (assay): DTP human tumour cell line panel, 48 h

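Dose response: 5 concentrations. Exposure: 48 h. Format: 96-well plates. Endpoint: linear interpolation; highest concentration if not reached. TGI marks complete inhibition of growth.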

Turning to `O=C1C[C@H](COCc2ccccc2)NC(=O)C[C@H](COCc2ccccc2)NC(=O)C[C@H](COCc2ccccc2)N1`, the TGI (commonly the concentration at which net growth stops) with HT29 colon is above 100 µM; in the assay on A498 renal it was 42 µM; with UO-31 renal, above 100 µM; in the assay with UACC-257 melanoma, above 100 µM; in the assay with K-562 leukemia, above 100 µM; in the assay with OVCAR-4 ovarian it was above 100 µM. The TGI with EKVX NSCLC is above 100 µM; in the assay with SR leukemia, above 100 µM; in the assay on IGROV1 ovarian, above 100 µM; in the assay on SK-MEL-28 melanoma it was above 100 µM; in the assay on SF-295 CNS, 89.2 µM; with KM12 colon it was above 100 µM. Further, the TGI in the assay on A549 NSCLC, with NCI-H460 lung, in the assay with SK-MEL-5 melanoma, with COLO 205 colon, in the assay with LOX IMVI melanoma and with HS 578T breast was above 100 µM each time. Further, the TGI with M14 melanoma is above 100 µM.

Take `O=[N+]([O-])C1=Cc2cc(Cl)ccc2OC1c1cccc2ccccc12` (stereo not drawn): the TGI in the assay with HT29 colon turned out to be 1.79 µM; in the assay on A498 renal, 3.9 µM; in the assay on UO-31 renal, 2.51 µM; with UACC-257 melanoma, 3.4 µM; in the assay on K-562 leukemia, 5.68 µM; in the assay on OVCAR-4 ovarian, 3.09 µM. Moreover, the TGI in the assay with EKVX NSCLC worked out at 2.81 µM; in the assay with SR leukemia, 2.07 µM; in the assay on IGROV1 ovarian, 2.87 µM; in the assay on SK-MEL-28 melanoma, 3.13 µM; with SF-295 CNS, 6.19 µM; in the assay with KM12 colon, 3.5 µM. Besides, the TGI worked out at 3.85 µM with A549 NSCLC; 5.28 µM in the assay with NCI-H460 lung; 2.64 µM in the assay with SK-MEL-5 melanoma; 6.71 µM in the assay with COLO 205 colon; 0.983 µM in the assay on LOX IMVI melanoma; 7.71 µM in the assay on HS 578T breast. Besides, in the assay with M14 melanoma, the TGI was found to be 3.66 µM.

As for `NC(=O)CN1CC(C2=C(O)CN(CC(N)=O)C2=O)=CC1=O`, the total growth inhibition concentration (TGI) in the assay with HT29 colon, with A498 renal, in the assay on UO-31 renal, in the assay on UACC-257 melanoma, in the assay with K-562 leukemia and with OVCAR-4 ovarian was above 100 µM in each case. For the same compound, the TGI in the assay with EKVX NSCLC, in the assay with SR leukemia, in the assay with IGROV1 ovarian, in the assay on SK-MEL-28 melanoma, in the assay on SF-295 CNS and in the assay with KM12 colon was above 100 µM in each case. Besides, the TGI with A549 NSCLC, in the assay with NCI-H460 lung, with SK-MEL-5 melanoma, in the assay with COLO 205 colon, with LOX IMVI melanoma and in the assay with HS 578T breast was above 100 µM throughout. Moreover, the TGI in the assay on M14 melanoma was above 100 µM.

Consider `COC(=O)C1CCC(=O)N1CN(C(C)=O)c1cc(OC)ccc1OC` (stereo not drawn), for which the TGI in the assay on HT29 colon, with A498 renal, in the assay with UO-31 renal, in the assay on UACC-257 melanoma, in the assay with K-562 leukemia and with OVCAR-4 ovarian was above 100 µM each time. Further, the TGI with EKVX NSCLC, in the assay on SR leukemia, in the assay on IGROV1 ovarian, in the assay with SK-MEL-28 melanoma, in the assay with SF-295 CNS and with KM12 colon was above 100 µM throughout. Further, the TGI with A549 NSCLC, in the assay on NCI-H460 lung, in the assay on SK-MEL-5 melanoma, in the assay on COLO 205 colon, with LOX IMVI melanoma and in the assay on HS 578T breast was above 100 µM throughout. In the assay on M14 melanoma, this compound showed a TGI above 100 µM.

Turning to `C[C@@H]1[C@H](O)CC2=C(CC[C@@H](O)C2(C)C)[C@@]1(CO)CCc1ccoc1`, the TGI in the assay on HT29 colon, with A498 renal, with UO-31 renal, with UACC-257 melanoma, in the assay with K-562 leukemia and with OVCAR-4 ovarian was above 50 µM each time. Further, the concentration for total growth inhibition (TGI) in the assay on EKVX NSCLC, in the assay on SR leukemia, with IGROV1 ovarian, in the assay on SK-MEL-28 melanoma, in the assay on SF-295 CNS and in the assay with KM12 colon was above 50 µM each time. In addition, the TGI with A549 NSCLC, in the assay with NCI-H460 lung, in the assay with SK-MEL-5 melanoma, with COLO 205 colon, with LOX IMVI melanoma and in the assay on HS 578T breast was above 50 µM each time. This compound also gave a TGI in the assay on M14 melanoma above 50 µM.

In the case of `CC(C)(C)OC(=O)N1CC(CCl)c2ccc(O)cc21` (stereo not drawn), the TGI in the assay with HT29 colon is 11 µM; in the assay with A498 renal it was 4.82 µM; in the assay on UO-31 renal it was 6.17 µM; in the assay on UACC-257 melanoma, 5.01 µM; in the assay on K-562 leukemia it was 14.2 µM; in the assay on OVCAR-4 ovarian, 1.39 µM. Further, the TGI was 6.73 µM in the assay with EKVX NSCLC; above 100 µM with SR leukemia; 13.3 µM in the assay on IGROV1 ovarian; 4.17 µM in the assay with SK-MEL-28 melanoma; 18.7 µM in the assay on SF-295 CNS; 4.6 µM in the assay with KM12 colon. Further, the TGI turned out to be 11.3 µM in the assay on A549 NSCLC; 10.2 µM in the assay on NCI-H460 lung; 2.77 µM with SK-MEL-5 melanoma; 4.53 µM in the assay on COLO 205 colon; 3.72 µM with LOX IMVI melanoma; 7.41 µM in the assay with HS 578T breast. Also, in the assay on M14 melanoma, the TGI worked out at 3.21 µM.

Turning to `O=C(O)c1nc2ccc(Cl)cc2[nH]c1=O`, the concentration for total growth inhibition (TGI) in the assay with HT29 colon, in the assay with A498 renal, in the assay on UO-31 renal, in the assay on UACC-257 melanoma, in the assay with K-562 leukemia and in the assay with OVCAR-4 ovarian was above 100 µM each time. Also, the TGI with EKVX NSCLC, with SR leukemia, in the assay with IGROV1 ovarian, in the assay with SK-MEL-28 melanoma, with SF-295 CNS and in the assay with KM12 colon was above 100 µM throughout. In addition, the TGI in the assay on A549 NSCLC, with NCI-H460 lung, in the assay with SK-MEL-5 melanoma, in the assay with COLO 205 colon, in the assay with LOX IMVI melanoma and with HS 578T breast was above 100 µM throughout. Moreover, the TGI in the assay with M14 melanoma was above 100 µM.

The values are drawn from PubChem BioAssay (NCI).
